No end group written: not given here.
Key:
rats [1] = assay: Open field test of anxiety; assay type: in vivo; conditions: for increase in the amount of time spent in the center of the field compared to vehicle: Example 6, P < .05
Procedure: The purpose of this study was to evaluate action of GLYX-13 on anxiety. In order to gauge the effect of GLYX-13 in rats, the open field test of anxiety was conducted. The open field test is a widely used neophobic test of anxiety (see, Treit D, Fundytus M. Thigmotaxis as a test for anxiolytic activity in rats. Pharmachol Biochem Behav 1989;31:959-62.).
The open field area used for the open field test generally consists of an empty and bright square (or rectangular) arena, surrounded by walls. For the current study, an open field of 45 cm X 35 cm X 20 cm high was used. The rat was placed in the center of the arena and its behavior recorded over a predefined period of time (usually between 2 to 15 min). The open field test is based on the natural tendency of the rats to avoid open spaces. The open field test is based on the conflict between the innate anxiety that rats have of the central area of the open space versus their desire to explore new environments. When rats are in an anxious state, they have a natural tendency to stay near the walls. This natural tendency of the rats to stay close to the walls is called thigmotaxis. In this context, anxiety-related behavior is measured by the degree to which the rat avoids the center of the open field test. Determining the propensity of the rat to avoid the open field can be determined by measuring the number of center crosses made by the rats over a predefined interval of time, or by determining the amount of time the rat stays in the center of the field.
(§1) In order to evaluate the effectiveness of GLYX-13 as an anxiolytic, two groups of three month old FBNF1 rats were used. The first group was composed of 13 rats and the second group was composed of 11 rats. The first group of rats was intravenously injected with 10 mg/kg GLYX-13 and the second group of rats was intravenously injected with PBS vehicle (1 ml/kg) in a blind manner via chronic […] femoral vein access ports. Both groups of rats were injected 10 to 15 minutes before the start of testing. After GLYX-13 injections, both groups of rats were tested in the open field.
For the open field test, rats were habituated to the open field for 2 minutes each day for three consecutive days before the final 2 minute test session in which GLYX-13 or vehicle was administered. Open field activity was recorded by a video camera mounted above the open field area, and number of center crosses in the open field was measured.
A second experiment was performed in the same manner as Example 3, except that groups of 8-10 two- to three-month old male Sprague-Dawley rats pretreated with either intravenous (1, 3, 10, 32 mg / kg), subcutaneous (1, 3, 10, 32, 56, 100 mg / kg) injections of GLYX-13, ketamine (10 mg/kg i.p.) or saline vehicle (1 mg / ml) 15 min (i.v.), 20 (s.c.) or 60 (i.p.) min before the start of the 5 min test session. Each data point represents a group of 8-10 rats. The average (mean) amount of time animals spent in the center of the field was measured.
To evaluate whether the anti-depressive and anxiolytic effects of GLYX-13 would persist beyond a few hours, rats were tested in the Porsot test and the Open Field test, described above. […] Mean (± SEM) time (sec.) spent floating in the Porsolt test, time spent in the center compartment (sec.), and line crosses in the open field test were determined.

[2] = system: rat hippocampal organotypic cultures; assay: LTP / LTD in hippocampal organotypic cultures; assay type: cell-based; conditions: in vitro
rats [3] = assay: Porsolt test (Forced Swim Test) of depression; assay type: in vivo; set-up: Mean Immobility Time: unit not given beside the values; conditions: for maximum reduction in floating compared to saline vehicle / Mean Immobility Time: Example 2; for maximum reduction in floating compared to saline vehicle: P < .01
Procedure: For the evaluation of the antidepressant actions of GLYX-13, the effect of GLYX-13 in the Porsolt test of depression was examined in rats. Porsolt testing is the most commonly used test for assessment of depression in animal model. Porsolt testing, also known as Forced Swim Test, is based on a behavioral trait that is sensitive to changes in affective state. During this test, the animal is placed in a tank (18 cm diameter x 45 cm height) filled to 30 cm with 22-23°C water. After placing the animal in the tank, the amount of time for which the rat is immobile when it stops struggling is measured. Porsolt test is based on the fact that antidepressants increase the latency to immobility and decrease the time for which the rat is immobile. […] The interpretation of the Porsolt test is that the antidepressants reinstate active coping mechanisms and decrease the passive immobility evoked by stress.
In order to evaluate the effectiveness of GLYX-13 as antidepressant, three month old FBNF1 rats were separated into two groups of 9 animals. The first group of rats was intravenously injected with 10 mg/kg GLYX-13 and the second group of animals was intravenously injected with PBS vehicle (1 ml/kg) in a blind manner via chronic subdural femoral vein access ports. Both groups of animals were injected 10 to 15 minutes before the start of testing.
For Porsolt testing, animals were given a 15 minute pre-test habituation in the tank to induce learned helplessness on day one. Following this, on the subsequent day, the animals were injected with GLYX-13 or vehicle 10-15 minutes before being placed into the tank for a 5 minute test session. After placing the animals in the tank, the amount of time for which each animal is immobile when it stops struggling (Mean Immobility Time) was measured. Decrease in Mean Immobility Time is a measure of the effectiveness of the antidepressant.
A second experiment was performed in the same manner as Example 1, except that 2-3 month Sprague-Dawley rats were used, and treated with either intravenous (1, 3, 10, 32 mg / kg), subcutaneous (1,3, 10, 32, 56, 100 mg / kg) injections of GLYX-13 or saline vehicle (1 mg / ml) 15 (i.v.) or 20 (s.c.) min before the start of the final 5 min test session. Ketamine (10 mg / kg i.p.) was given 60 min before the start of testing (Garcia et al., (2008) Prog Neuropsychopharmacol Biol Psychiatry, 32, 140-144). Subcutaneous administration of 10 mg/kg ketamine followed by testing after 20 min post dosing produced severe dissociative side effects, as shown in Figure 3.
To determine whether GLYX-13 acts in an area of the brain that is clinically relevant for depression, GLYX-13 was administered to either the medial prefrontal cortex (MPFC), which is associated with mood and depression, or to the motor cortex (Fig. 4). Mean time spent immobile in the Porsolt test was determined for groups of 10 three-month old male Fisher Brown Norway F1 (FBNF1) rats pretreated with a single injection of GLYX-13 (1, 10 ug / side) or a single saline vehicle injection (0.5 ul / 1 min) bilaterally into the medial prefrontal cortex or motor cortex (dorsal control) in animals with surgically implanted chronic indwelling cannulae aimed at the MPFC. Microinjections were made 1 week after surgery, and Porsolt testing was conducted 20 min post injection. Animals received a single 15 min training swim session one day before dosing.
To determine whether the antidepressant effect of GLYX-13 was specific to the sequence of the GLXY-13 peptide, mean time (sec) spent floating in the Porsolt test was determined in groups of 12 three-month old Sprague Dawley rats administered with GLYX-13 (TPPT-NH2; 3 mg / kg, i.v. tail vein), a scrambled peptide ([…]; 3 mg / kg i.v. tail vein), or 0.9% saline vehicle (1 ml / kg, i.v. tail vein). Administration occurred 60 min before the 5 min. testing session. Animals received a 15 min. training swim session one day before dosing. […]

rats [4] = assay: 50-kHz ultrasonic vocalizations model of positive affect (rough-and-tumble play); assay type: in vivo; conditions: Example 8; 10 mg/kg i.v., 10-15 min before test; FBNF1 rats; Mean ± SEM; P < .01
Source text: To evaluate the hedonic effect of GLYX-13 in this study, the 50-kHz ultrasonic vocalizations model of positive affect was examined in rats (see, Burgdorf, J., Panksepp, J., Brudzynski, S.M., Kroes, R.A. & Moskal, J.R. (2008). The effect of selective breeding for differential rates of 50-kHz ultrasonic vocalizations on emotional behavior in rats. Devel. Psychobiology, 51, 34-46.).
as §1, with “As a part of” for “In order to evaluate”, “study,” for “effectiveness of GLYX-13 as an anxiolytic,”, “10mg/kg” for “10 mg/kg”, “test.” for “testing. After GLYX-13 injections, both groups of rats were tested in the open field.”
For hedonic ultrasonic vocalizations (USVs), animals received 2 minutes of heterospecific RTP habituation before the final 2 minutes test session.

rats [5] = assay: Porsolt test (Forced Swim Test) of depression; assay type: in vivo; set-up: Mean Immobility Time: unit not given beside the values
[6] = Example 7, 3 mg / kg i.v., Sprague-Dawley rats

L-threonyl-L-prolyl-L-prolyl-L-threonine amide (TPPT-NH2) [GLYX-13, NMDAR glycine-site partial agonist]
increase in center crosses compared to vehicle (rats [1]; Example 5, 10 mg/kg i.v., 10-15 min before test, FBNF1 rats, Mean ± SEM, P < .005): 172.6 ± 34.3%
increase in the amount of time spent in the center of the field compared to vehicle (rats [1]; intravenous administration, 15 min before test, Sprague-Dawley rats, Mean ± SEM): 42± 5%
increase in the amount of time spent in the center of the field compared to vehicle (rats [1]; subcutaneous administration, 20 min before test, Sprague-Dawley rats, Mean ± SEM): 36 ± 5%
increase in mean center time compared to saline control (rats [1]; Example 7, 3 mg / kg i.v., tested 120 hrs post dosing, Sprague-Dawley rats, mean ± SEM): 125% ± 5
duration of anxiolytic effects of a single administration (rats [1]; [6]): up to 5 days
long-term depression (LTD) [2]: reducing
long-term potentiation (LTP) [2]: markedly elevate
reduction in floating compared to PBS vehicle (rats [3]; Example 1, 10 mg/kg i.v., 10-15 min before test, three month old FBNF1 rats, Mean ± SEM, P < .0001): 56.4 ± 4.6%
maximum reduction in floating compared to saline vehicle (rats [3]; administered intravenously, Sprague-Dawley rats, Mean ± SEM): 50 ± 10%
maximum reduction in floating compared to saline vehicle (rats [3]; administered subcutaneously, Sprague-Dawley rats, Mean ± SEM): 43 ± 7%
Mean Immobility Time (rats [3]; i.v., dose 3 (mg/kg), 15 min before test, Sprague-Dawley rats): 66.14 ±27.53
Mean Immobility Time (rats [3]; i.v., dose 10 (mg/kg), 15 min before test, Sprague-Dawley rats): 60.6 ±14.7
Mean Immobility Time (rats [3]; i.v., dose 32 (mg/kg), 15 min before test, Sprague-Dawley rats): 87.19±17.85
Mean Immobility Time (rats [3]; s.c., dose 1 (mg/kg), 20 min before test, Sprague-Dawley rats): 135.5 ±22.0
Mean Immobility Time (rats [3]; s.c., dose 3 (mg/kg), 20 min before test, Sprague-Dawley rats): 100.2 ±15.7
Mean Immobility Time (rats [3]; s.c., dose 10 (mg/kg), 20 min before test, Sprague-Dawley rats): 76.9 ±9.7
Mean time spent immobile (rats [3]; Example 3, MPFC injection, dose 1 (ug / side), FBNF1 rats, Mean ± SEM): 53.46 ±10.65
Mean time spent immobile (rats [3]; Example 3, MPFC injection, dose 10 (ug / side), FBNF1 rats, Mean ± SEM): 62.54±8.7
reduction in floating compared to a saline control or to GLYX-13 injected into motor cortex (rats [3]; Example 3, injected bilaterally into the MPFC, FBNF1 rats, 20 min post injection, Mean ± SEM): 50 ± 5%
Mean time spent immobile (rats [3]; Example 3, injected into motor cortex (dorsal control), FBNF1 rats, Mean ± SEM): 113.7 ±13.1
reduction in mean floating time compared to saline injection or scrambled peptide (rats [3]; Example 4, 3 mg / kg i.v. tail vein, 60 min before test, Sprague Dawley rats, Mean ± SEM): 70 ± 5%
reduction in mean floating time compared to saline control (rats [3]; Example 7, 3 mg / kg i.v., tested 96 hrs post dosing, Sprague-Dawley rats, mean ± SEM): 82% ± 2
duration of antidepressant effects of a single administration (rats [3]; [6]): up to 4 days
onset of action (rats [3]; single dose, rats): within minutes
increase in rates of play-induced positive affective 50-kHz USVs compared to vehicle (rats [4]): 178.5 ± 48.3%
Mean Immobility Time (rats [5]; Example 2, i.v., dose printed as 2, 15 min before test, Sprague-Dawley rats): 84.9 ±15.0
Mean time spent immobile (rats [5]; Example 3, MPFC injection, dose 0.1 (ug / side), FBNF1 rats, Mean ± SEM): 108.77 ±12.34
